Assay results published in patent US11149033B2, “Heteroaryl compound, enantiomer, diastereomer or pharmaceutically acceptable salt thereof, and antiviral composition containing same as active ingredient” (priority 2016, dated 2021).
Read-outs that look alike come from different tables or passages of the source.

Assays:
[1] = system: A/California/07/2009 (H1N1); test: Antiviral activity (drug efficacy evaluation by concentration) against A/California/07/2009 (H1N1); format: cell-based, A type influenza virus; conditions: Influenza A virus
[2] = in vitro
[3] = system: B/Florida/04/2006; test: Antiviral activity (drug efficacy evaluation by concentration) against B/Florida/04/2006; format: cell-based, B type influenza virus
[4] = system: A/Perth/16/2009 (H3N2); test: Antiviral activity (drug efficacy evaluation by concentration) against A/Perth/16/2009 (H3N2); format: cell-based, A type influenza virus; conditions: Influenza A virus
[5] = H1N1, A/California/07/2009 (H1N1), read-out: EC50 A/California/07/2009 (H1N1)
[6] = CC50 B/Florida/04/2006, cytotoxicity in the B/Florida/04/2006 assay
[7] = read-out: EC50 B/Florida/04/2006, B/Florida/04/2006
[8] = H3N2, A/Perth/16/2009 (H3N2), read-out: EC50 A/Perth/16/2009 (H3N2)
[9] = CC50, third EC50/CC50 column pair (c7), beside the EC50 of c6

Compound | EC50 [1, 5] | CC50 [2, 6] | EC50 [3, 7] | EC50 [4, 8] | melting point | EC50 ([1]; H1N1, read-out: EC50) | EC50 [3] | EC50 ([4]; H3N2, read-out: EC50) | CC50 ([2]; CC50, beside the EC50 of c2) | CC50 ([2]; CC50, beside the EC50 of c4) | CC50 [2, 9]
Cc1nn(Cc2nnc(SCc3ccccc3-c3ccccc3)o2)c(C)c1Br [Compound 1, 2-(([1,1′-biphenyl]-2-ylmethyl)thio)-5-((4-bromo-3,5-dimethyl-1H-pyrazol-1-yl)methyl)-1,3,4-oxadiazole] | 0.77 µM | 41.3 µM | 0.98 µM | 1.15 µM | – | – | – | – | – | – | –
Brc1cnn(Cc2nnc(SCc3ccccc3-c3ccccc3)o2)c1 [Compound 3, 2-(([1,1′-biphenyl]-2-ylmethyl)thio)-5-((4-bromo-1H-pyrazol-1-yl)methyl)-1,3,4-oxadiazole] | 1.36 µM | > 50 µM | 1.21 µM | 1.75 µM | – | – | – | – | – | – | –
c1ccc(-c2ccccc2CSc2nnc(Cn3cccn3)o2)cc1 [Compound 4, 2-((1H-pyrazol-1-yl)methyl)-5-(([1,1′-biphenyl]-2-ylmethyl)thio)-1,3,4-oxadiazole] | > 50 µM | > 50 µM | > 50 µM | > 50 µM | – | – | – | – | – | – | –
Cc1cc(C)n(Cc2nnc(SCc3ccccc3-c3ccccc3)o2)n1 [Compound 5, 2-(([1,1′-biphenyl]-2-ylmethyl)thio)-5-((3,5-dimethyl-1H-pyrazol-1-yl)methyl)-1,3,4-oxadiazole] | 8.68 µM | > 50 µM | 9.49 µM | 10.7 µM | – | – | – | – | – | – | –
Cc1nn(Cc2nnc(SCc3ccccc3-c3ccccc3)o2)c(C)c1Cl [Compound 7, 2-(([1,1′-biphenyl]-2-ylmethyl)thio)-5-((4-chloro-3,5-dimethyl-1H-pyrazol-1-yl)methyl)-1,3,4-oxadiazole] | 1.26 µM | > 50 µM | 1.11 µM | 1.89 µM | – | – | – | – | – | – | –
Cc1ccccc1CSc1nnc(Cn2nc(C)c(Br)c2C)o1 [Compound 9, 2-((4-bromo-3,5-dimethyl-1H-pyrazol-1-yl)methyl)-5-((2-methylbenzyl)thio)-1,3,4-oxadiazole] | 4.2 µM | > 50 µM | 4.7 µM | 5.55 µM | – | – | – | – | – | – | –
Brc1ccn(Cc2nnc(SCc3ccccc3-c3ccccc3)o2)n1 [Compound 11, 2-(([1,1′-biphenyl]-2-ylmethyl)thio)-5-((3-bromo-1H-pyrazol-1-yl)methyl)-1,3,4-oxadiazole] | 13.2 µM | > 50 µM | 12.9 µM | 12.5 µM | – | – | – | – | – | – | –
Cc1nn(Cc2nnc(SCC(=O)c3ccccc3-c3ccccc3)o2)c(C)c1Br [Compound 13, 1-([1,1′-biphenyl]-2-yl)-2-((5-((4-bromo-3,5-dimethyl-1H-pyrazol-1-yl)methyl)-1,3,4-oxadiazol-2-yl)thio)ethan-1-on] | > 50 µM | > 50 µM | 42.5 µM | > 50 µM | – | – | – | – | – | – | –
Cc1nn(Cc2nnc(SCc3ccccc3)o2)c(C)c1Br [Compound 14, 2-(benzylthio)-5-((4-bromo-3,5-dimethyl-1H-pyrazol-1-yl)methyl)-1,3,4-oxadiazole] | 18 µM | > 50 µM | 16.4 µM | 20.5 µM | – | – | – | – | – | – | –
Cc1nn(Cc2nnc(NCc3ccccc3-c3ccccc3)o2)c(C)c1Br [Compound 17, N-([1,1′-biphenyl]-2-ylmethyl)-5-((4-bromo-3,5-dimethyl-1H-pyrazol-1-yl)methyl)-1,3,4-oxadiazol-2-amine] | 35.2 µM | 38.1 µM | 19 µM | 30 µM | – | – | – | – | – | – | –
c1ccc(Cc2nnc(SCc3ccccc3-c3ccccc3)o2)cc1 [Compound 18, 2-(([1,1′-biphenyl]-2-ylmethyl)thio)-5-benzyl-1,3,4-oxadiazole] | 6.1 µM | > 50 µM | 5.18 µM | 6.8 µM | – | – | – | – | – | – | –
Cc1nn(Cc2nnc(SCc3ccccc3-c3cccnc3)o2)c(C)c1Br [Compound 19, 2-((4-bromo-3,5-dimethyl-1H-pyrazol-1-yl)methyl)-5-((2-(pyridin-3-yl)benzyl)thio)-1,3,4-oxadiazole] | > 50 µM | > 50 µM | > 50 µM | > 50 µM | – | – | – | – | – | – | –
Brc1ccc(Cc2nnc(SCc3ccccc3-c3ccccc3)o2)cc1 [Compound 22, 2-(([1,1′-biphenyl]-2-ylmethyl)thio)-5-(4-bromobenzyl)-1,3,4-oxadiazole] | 4.9 µM | > 50 µM | 4.88 µM | 5 µM | – | – | – | – | – | – | –
Cc1nn(Cc2nnc(SCc3ccccc3C(C)C)o2)c(C)c1Br [Compound 23, 2-((4-bromo-3,5-dimethyl-1H-pyrazol-1-yl)methyl)-5-((2-isopropylbenzyl)thio)-1,3,4-oxadiazole] | 0.6 µM | 14.2 µM | 0.82 µM | 1.1 µM | – | – | – | – | – | – | –
CCn1c(Cn2nc(C)c(Br)c2C)nnc1SCc1ccccc1-c1ccccc1 [Compound 24, 3-(([1,1′-biphenyl]-2-ylmethyl)thio)-5-((4-bromo-3,5-dimethyl-1H-pyrazol-1-yl)methyl)-4-ethyl-4H-1,2,4-triazole] | – | > 50 µM | > 50 µM | > 50 µM | 137.8 °C | – | – | – | – | – | –
Cc1nn(Cc2nnc(SC(c3ccccc3)c3ccccc3)o2)c(C)c1Br [Compound 25, 2-(benzhydrylthio)-5-((4-bromo-3,5-dimethyl-1H-pyrazol-1-yl)methyl)-1,3,4-oxadiazole] | 2.5 µM | 9.4 µM | 5.18 µM | 2 µM | – | – | – | – | – | – | –
Cc1ccccc1CCSc1nnc(Cn2nc(C)c(Br)c2C)o1 [Compound 26, 2-((4-bromo-3,5-dimethyl-1H-pyrazol-1-yl)methyl)-5-((2-methylphenethyl)thio)-1,3,4-oxadiazole] | 31.2 µM | > 50 µM | 36.2 µM | 29.4 µM | – | – | – | – | – | – | –
c1ccc(-c2ccccc2CSc2nnc(Cc3ccccn3)o2)cc1 [Compound 27, 2-(([1,1′-biphenyl]-2-ylmethyl)thio)-5-(pyridin-2-ylmethyl)-1,3,4-oxadiazole] | 8.7 µM | > 50 µM | 13.4 µM | 6.8 µM | – | – | – | – | – | – | –
c1ccc(-c2cnn(Cc3nnc(SCc4ccccc4-c4ccccc4)o3)c2)cc1 [Compound 30, 2-(([1,1′-biphenyl]-2-ylmethyl)thio)-5-((4-phenyl-1H-pyrazol-1-yl)methyl)-1,3,4-oxadiazole] | > 50 µM | > 50 µM | > 50 µM | 13 µM | – | – | – | – | – | – | –
Cc1nn(Cc2nnc(SCc3ccccc3-n3cccc3)o2)c(C)c1Br [Compound 31, 2-((2-(1H-pyrrol-1-yl)benzyl)thio)-5-((4-bromo-3,5-dimethyl-1H-pyrazol-1-yl)methyl)-1,3,4-oxadiazole] | 1.8 µM | 11.8 µM | 3.57 µM | 2.3 µM | – | – | – | – | – | – | –
Cc1nn(Cc2nnc(SCc3ccccc3-c3ccoc3)o2)c(C)c1Br [Compound 34, 2-((4-bromo-3,5-dimethyl-1H-pyrazol-1-yl)methyl)-5-((2-(furan-3-yl)benzyl)thio)-1,3,4-oxadiazole] | 1.4 µM | 22.8 µM | 4.48 µM | 1.8 µM | – | – | – | – | – | – | –
Cc1nn(Cc2nnc(SCc3ccccc3Cc3ccccc3)o2)c(C)c1Br [Compound 38, 2-((2-benzylbenzyl)thio)-5-((4-bromo-3,5-dimethyl-1H-pyrazol-1-yl)methyl)-1,3,4-oxadiazole] | 1.03 µM | > 50 µM | 1.18 µM | 1.04 µM | – | – | – | – | – | – | –
Cc1nc2ccccc2n1Cc1nnc(SCc2ccccc2-c2ccccc2)o1 [Compound 41, 2-(([1,1′-biphenyl]-2-ylmethyl)thio)-5-((2-methyl-1H-benzo[d]imidazol-1-yl)methyl)-1,3,4-oxadiazole] | 0.69 µM | 19.7 µM | 1.21 µM | 0.91 µM | – | – | – | – | – | – | –
Brc1ccc(NCc2nnc(SCc3ccccc3-c3ccccc3)o2)cc1 [Compound 47, N-((5-(([1,1′-biphenyl]-2-ylmethyl)thio)-1,3,4-oxadiazol-2-yl)methyl)-4-bromoaniline] | > 50 µM | > 50 µM | > 50 µM | – | – | – | – | – | – | – | –
CC(C)c1ccccc1/C=C/c1nnc(Cc2ccc(F)c(Cl)c2)o1 [Compound 131, 2-(3-chloro-4-fluorobenzyl)-5-(2-isopropylstyryl)-1,3,4-oxadiazole] | – | – | – | – | – | 0.927 µM | 1.02 µM | 0.835 µM | – | – | –
Cc1ccc(Cc2nnc(/C=C/c3ccccc3C(C)C)o2)cc1Br [Compound 145, 2-(3-bromo-4-methylbenzyl)-5-(2-isopropylstyryl)-1,3,4-oxadiazole] | – | – | – | – | 111.2 °C | – | > 50 µM | 49.1 µM | > 50 µM | > 50 µM | > 50 µM
FC(F)(F)c1cccc(/C=C/c2nnc(Cc3ccc(Br)cc3)o2)c1Cl [Compound 152, 2-(4-bromobenzyl)-5-(2-chloro-3-(trifluoromethyl)styryl)-1,3,4-oxadiazole] | – | – | – | – | 118.9 °C | – | > 50 µM | > 50 µM | > 50 µM | > 50 µM | > 50 µM
COc1cccc(Cc2nnc(/C=C/c3ccc(F)cc3Cl)o2)c1 [Compound 202, (E)-2-(2-chloro-4-fluorostyryl)-5-(3-methoxybenzyl)-1,3,4-oxadiazole] | – | – | – | – | 131.7 °C | – | > 50 µM | > 50 µM | > 50 µM | > 50 µM | > 50 µM
Fc1ccc(/C=C/c2nnc(Cc3ccc(Cl)c(Cl)c3)o2)c(Cl)c1 [Compound 208, 2-(2-chloro-4-fluorostyryl)-5-(3,4-dichlorobenzyl)-1,3,4-oxadiazole] | – | – | – | – | 179.9 °C | – | 1.19 µM | 0.72 µM | > 50 µM | > 50 µM | > 50 µM
